From US20230293526A1, “METHOD FOR TREATING CANCER WITH A REVERSE TRANSCRIPTASE INHIBITOR” (PrimeFour Therapeutics, Inc., priority 2020, published 2023)

Experiments:
Assay in all cases: Cell proliferation CellTiterGlo Ex.2
Type in all cases: cell-based
KG-1 = settings: Homo sapiens; KG-1 (Blood), 72 h
Method: (§1) A dose response relationship on cell proliferation was assessed for Compound 13 on 140 tumor cell lines. Briefly, compound treatment of cells started one day after seeding with a final DMSO concentration of 0.100, and was performed by nanodrop-dispensing using a Tecan Dispenser. 0.10% DMSO (solvent) and Staurosporine (10 μM) served as high control (10000 viability) and low control (000 viability), respectively. Compound 13 was tested at 10, 3, 1, 0.3, 0.1, 0.03, 0.01, and 0.003 μM.
(§2) Cells were cultured in the appropriate media. For the assays, cells were seeded in white cell culture-treated flat and clear bottom multiwell plates and incubated at 37° C. overnight before compound was added. After incubation for 72 h at 37° C. at 5% or 10% CO2 dependent on the medium, cell plates were equilibrated to room temperature for one hour, CellTiterGlo reagent (Promega) was added and luminescence was measured approximately an hour later using a luminometer.
(§3) Raw data were converted into percent cell viability relative to the high and low control, which were set to 10000 and 000, respectively.

Hep3B2.1-7 = Hep3B2.1-7 (Liver), 72 h
Method: as §1, §2, §3

SK-ES-1 = settings: Homo sapiens, SK-ES1; SK-ES-1 (Bone), 72 h
Method: as §1, §2, §3

NCI-H292 = settings: Homo sapiens; NCI-H292 (Lung), 72 h
Method: as §1, §2, §3

HCT-15 = settings: Homo sapiens; HCT-15 (Colon), 72 h
Method: as §1, §2, §3

NCI-N87 = settings: Homo sapiens; NCI-N87 (Stomach), 72 h
Method: as §1, §2, §3

SJSA-1 = settings: Homo sapiens; SJSA-1 (Bone), 72 h
Method: as §1, §2, §3

H4 = H4 (Brain), 72 h
Method: as §1, §2, §3

M07e = settings: M-07e; M07e (Blood), 72 h
Method: as §1, §2, §3

KG-1 a = settings: Homo sapiens; KG-1 a (Blood), 72 h
Method: as §1, §2, §3

NCI-H1838 = settings: Homo sapiens; NCI-H1838 (Lung), 72 h
Method: as §1, §2, §3

U-937 = settings: Homo sapiens; U-937 (Blood), 72 h
Method: as §1, §2, §3

H1299 = settings: Homo sapiens, NCI-H1299; H1299 (Lung), 72 h
Method: as §1, §2, §3

K562 = settings: Homo sapiens; K562 (Blood), 72 h
Method: as §1, §2, §3

HEC-1-B = settings: Homo sapiens; HEC-1-B (Endometrium), 72 h
Method: as §1, §2, §3

Kato III = settings: Homo sapiens; Kato III (Stomach), 72 h
Method: as §1, §2, §3

OPM-2 = settings: Homo sapiens; OPM-2 (Blood), 72 h
Method: as §1, §2, §3

OVK18 = OVK18 (Ovary), 72 h
Method: as §1, §2, §3

Caki-2 = settings: Homo sapiens; Caki-2 (Kidney), 72 h
Method: as §1, §2, §3

OCI-AML3 = settings: Homo sapiens, OCI-AML-3; OCI-AML3 (Blood), 72 h
Method: as §1, §2, §3

LP-1 = settings: Homo sapiens; LP-1 (Blood), 72 h
Method: as §1, §2, §3

A427 = settings: Homo sapiens, A-427; A427 (Lung), 72 h
Method: as §1, §2, §3

NCI-H1048 = settings: Homo sapiens; NCI-H1048 (Lung), 72 h
Method: as §1, §2, §3

MOLM-13 = settings: Homo sapiens; MOLM-13 (Blood), 72 h
Method: as §1, §2, §3

A375 = settings: Homo sapiens, A-375; A375 (Skin), 72 h
Method: as §1, §2, §3

SiHa = settings: Homo sapiens; SiHa (Cervix), 72 h
Method: as §1, §2, §3

PC3 = settings: Homo sapiens, PC-3; PC3 (Prostate), 72 h
Method: as §1, §2, §3

NCI-H1703 = settings: Homo sapiens; NCI-H1703 (Lung), 72 h
Method: as §1, §2, §3

HEC-1-A = settings: Homo sapiens; HEC-1-A (Endometrium), 72 h
Method: as §1, §2, §3

SW-1783 = settings: Homo sapiens, SW1783; SW-1783 (Brain), 72 h
Method: as §1, §2, §3

LN229 = settings: Homo sapiens, LN-229; LN229 (Brain), 72 h
Method: as §1, §2, §3

H460 = settings: Homo sapiens, NCI-H460; H460 (Lung), 72 h
Method: as §1, §2, §3

RKO = settings: Homo sapiens; RKO (Colon), 72 h
Method: as §1, §2, §3

LOVO = settings: Homo sapiens; LOVO (Colon), 72 h
Method: as §1, §2, §3

C#C[C@]1(CO)O[C@@H](n2cnc3c(=O)[nH]c(N)nc32)C[C@@H]1O [compound 13]
IC50 (KG-1): > 10 µM | IC50 (Hep3B2.1-7): 0.82 µM | IC50 (SK-ES-1): 4.99 µM | IC50 (NCI-H292): 8.56 µM | IC50 (HCT-15): > 10 µM | IC50 (NCI-N87): 3.6 µM | IC50 (SJSA-1): 6.44 µM | IC50 (H4): > 10 µM | IC50 (M07e): 4.07 µM | IC50 (KG-1 a): 5.86 µM | IC50 (NCI-H1838): 7.53 µM | IC50 (U-937): 1.12 µM | IC50 (H1299): 7.68 µM | IC50 (K562): > 10 µM | IC50 (HEC-1-B): > 10 µM | IC50 (Kato III): 4.86 µM | IC50 (OPM-2): > 10 µM | IC50 (OVK18): 2.21 µM | IC50 (Caki-2): > 10 µM | IC50 (OCI-AML3): 7.15 µM | IC50 (LP-1): 3.15 µM | IC50 (A427): 0.55 µM | IC50 (NCI-H1048): 2.49 µM | IC50 (MOLM-13): 0.46 µM | IC50 (A375): 2.37 µM | IC50 (SiHa): 2.45 µM | IC50 (PC3): 4.01 µM | IC50 (NCI-H1703): 9.16 µM | IC50 (HEC-1-A): > 10 µM | IC50 (SW-1783): 2.25 µM | IC50 (LN229): 2.23 µM | IC50 (H460): 5.68 µM | IC50 (RKO): 4.51 µM | IC50 (LOVO): 8.21 µM
